Assay results reported in article PMC8961585, “Inhibition of Polyglutamine Misfolding with D-Enantiomeric Peptides Identified by Mirror Image Phage Display Selection” (Biomolecules, 2022).
One block for each compound: values may come before it.

Assays:
[1] = molecular target: T1, L-ARQ46 (Homo sapiens, UniProt P10275); assay: SPR binding to immobilized L-ARQ46; conditions: L-ARQ46 immobilized on CM5 chip via amine coupling (1400 RU); steady state affinity fit; TBS pH 7.5, 0.05% Tween, 25 °C; multi-cycle, up to 20 µM; data not shown
T1 construct: L-ARQ46; purchased peptides & elephants GmbH (Henningsdorf, Germany); host or cells: chemical synthesis
T1 sequence (P10275 with tags, fused parts or gaps): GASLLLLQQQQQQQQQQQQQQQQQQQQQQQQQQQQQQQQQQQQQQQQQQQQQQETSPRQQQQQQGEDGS
Procedure: Binding studies were performed with surface plasmon resonance (SPR) in a Biacore T200 device (Biacore, GE Healthcare, Uppsala, Sweden). The L-ARQ46 was immobilized on a CM5 Chip via amine coupling (1400 RU). The selected D-enantiomeric peptide compound QF2D-2 was dissolved in the running buffer (TBS pH 7.5 with 0.05% Tween) and served as the analyte in multi-cycle experiments, with the highest peptide concentration being 20 µM. Experiments were performed at 25 °C with a flow rate of 45 µL/min. After a contact time of 110 s and a dissociation time of 400 s, the surface was regenerated with low pH (Glycin-HCl, pH 2.2) for 30 s with a flow rate of 30 µL/min. The data were evaluated via affinity fit of the steady state using the biacore evaluation software.

[2] = molecular target: T1, L-ARQ46; assay: ThT aggregation assay of ARQ46 seeded with soluble aggregate fragments; assay type: biochemical; conditions: 15 µM ARQ46
Procedure: (§1) Following the disaggregation protocol that Chen et al. published, the polyglutamine proteins were incubated for three days in 1:1 TFA/Hexafluoroisopropanol (HFIP) or overnight in 100% trifluoroacetic acid (TFA). Afterwards the solvent was evaporated with N2 gas treatment and the polyglutamine protein redissolved in the experiment buffer.
(§2) Thioflavin T (ThT) assays were performed to monitor the time-dependent formation of amyloidogenic aggregates. The assays were performed at 37 °C in TBS pH 7.5 (15 µM ThT) with 300 rpm double orbital shaking. All buffers were sterile filtrated beforehand. Polyglutamine proteins were disaggregated as described before. The peptides were pre-diluted in TBS pH 7.5. The disaggregated polyglutamine protein in buffer was mixed with 15 µM ThT and the pre-diluted peptides in a 96-well half-area flat-bottom microplate (Corning, New York, NY, USA). During the experiment all wells contained 100 µL ThT solution. Sealing the plate with foil (Thermo Fisher Scientific, Waltham, MA, USA) helped to prevent evaporation. The progression of fluorescence intensity was tracked by a microplate reader (BMG Labtech, Ortenberg, Germany).
For seeded experiments, the slope of the curve was considered instead of the lag-time because seeding eliminated the lag-time. The slope was determined by plotting the first values and fitting with a linear fit. The considered period (2 to 3.5 h) was similar for the curves compared with.
The disaggregated ARQ46 was diluted to 300 µM and incubated at 37 °C, 400 rpm. After 24 h large, white aggregates were visible in the tube. The sample was sonicated (Sonopuls, Bandelin electronic GmbH & Co. KG, Berlin, Germany) four times for 15 s with an amplitude of 60%. Between the sonification steps the sample was cooled on ice. Post sonification the sample was turbid. It was centrifuged at 100,000 g for 1 h at 4 °C to remove insoluble aggregates from the solution. The clear supernatant was used for seeding with soluble aggregate fragments.
Figure 5 QF2D-1, QF2D-2 and QF2D-6 inhibit the aggregation of ARQ46 in presence of soluble aggregate fragment seeds; ARQ46 was aggregated, and the solution was subject to spinning at 100,000 g in an ultracentrifuge. The supernatant was preincubated with 15 µM and 7.5 µM of one of the selected compounds in TBS at 37 °C. After 23 h, 15 µM monomeric ARQ46 were added, and the fluorescence intensity was measured every 15 min at λex = 448 nm and λem = 482 nm with agitation at 300 rpm between measurements. P8 served as a control compound that was not selected on polyglutamine, whereas QBP1 is claimed to bind polyglutamine tracts and inhibit polyglutamine-driven aggregation. (A) Fluorescence intensity of P8, QBP1, QF2D-1, QF2D-2 and QF2D-6 in equimolar and sub stoichiometric ratio at 90 h. (B) The data points acquired between 24 h and 26 h- shortly after monomer addition- were fitted with a linear fit. The slope was compared. (C) Measurement example of the described ThT-assay with ARQ46 (black), P8 (light grey), QBP1 (grey) and QF2D-2 (dark grey). The mean fluorescence intensity is shown for each time point. The experiment was performed in two-fold determination.

[3] = molecular target: T1, L-ARQ46; assay: ThT aggregation assay, monomeric ARQ46, unseeded; assay type: biochemical
Procedure: as §1, §2
The lag-time was estimated as follows: the average variation of the curve was determined with the last ten values of the steady state. […]
The progression of fluorescence intensity was measured every 30 min at λex = 410 nm and λem = 482 nm with 30 s agitation at 300 rpm before every measurement. (A) Fluorescence intensity measured at 90 h of the aggregation assay starting with 15 µM monomeric ARQ46 without peptide and with 15 µM QF2D-1, QF2D-2, QF2D-3, QF2D-4, QF2D-5, QF2D-6, QF2D-7, QF2D-8 or QF2D-9. […] The mean fluorescence intensity is shown for each time point. […]
Figure 8 Effect of different QF2D-2 concentrations on the aggregation of ARQ46; ThT assay with L-ARQ46 was performed at 37 °C in TBS pH 7.5. The progression of fluorescence intensity was measured every 30 min at λex = 410 nm and λem = 482 nm with 30 sec agitation at 300 rpm before every measurement. […] The mean fluorescence intensity is shown for each time point. […]

[4] = Spontaneous aggregation of polyglutamine peptides (ThT); assay type: physicochemical; conditions: no inhibitor, TBS pH 7.5, 37 °C
Procedure: as §1, §2
(§3) Figure 1 Disaggregation of ARQ46; Examination of ARQ46 post disaggregation. […] (B) ThT-Measurement of 15 µM ARQ46, disaggregated with 1:1 TFA/HFIP, in TBS pH 7.5 measured at 37 °C.

[5] = CD secondary structure of polyglutamine peptides; assay type: physicochemical
Procedure: as §1
After disaggregation, polyglutamine proteins were dissolved in TBS pH 7.5 and measured in a quartz crystal cuvette with 1 mm light path (Hellma Analytics, Müllheim, Germany) in a CD spectrometer (J-1100, Jasco Deutschland GmbH, Pfungstadt, Germany) with 4 acquisitions. The High tension voltage (HT) was monitored throughout the experiment. Data for which the HT exceeded 600 V were excluded. Buffer measurements served as references. Analogous, samples containing 50 µM ARQ46 and 50 µM QF2D-1 or QF2D-2 were measured and referenced with the measurement of 50 µM QF2D-1 or QF2D-2 alone. […] The CD spectra of the samples were monitored after 24 h, 48 h and 168 h of aggregation.
as §3
Figure 2 CD-spectrum of D-ARQ23 disaggregated with 100% TFA; Prior to the phage display selection D-ARQ23 was disaggregated with TFA to ensure selection on monomeric target. CD-spectrum was recorded in 10 mM Tris pH 8.

[6] = tested on: polyglutamine disease mouse model; parameters: method as in PMID 18603372, PMID 23226463, PMID 23504628; conditions: cited from earlier work
[7] = tested on: polyglutamine proteins; conditions: cited from earlier work
Description: Patients suffering from polyglutamine diseases present with aggregates in their neurons before symptom onset and therefore probably also before treatments start. Thus, a promising drug candidate should inhibit the aggregation in presence of pre-formed aggregates. […] The effects of the compounds were compared with two controls. The first, P8, has been selected on SOD1 and should not bind to polyg ...

[8] = tested on: Drosophila; parameters: method as in PMID 12761040; conditions: cited from earlier work
[9] = soluble aggregate seeds, slope 24 to 26 h, peptide concentration not stated (15 or 7.5 µM)

Compound: C[C@H](O)[C@@H](NC(=O)[C@@H](CO)NC(=O)[C@@H](Cc1c[nH]c2ccccc12)NC(=O)[C@@H](CCC(N)=O)NC(=O)[C@@H](CO)NC(=O)[C@@H](CCC(N)=O)NC(=O)[C@H](N)CO)C(=O)N1CCC[C@@H]1C(=O)N[C@H](CCC(N)=O)C(=O)NCC(=O)N[C@H](CCCCN)C(=O)N[C@H](Cc1c[nH]c2ccccc12)C(=O)N[C@H](CO)C(=O)N[C@H](Cc1c[nH]cn1)C(=O)N[C@H](Cc1c[nH]c2ccccc12)C(=O)N1CCC[C@@H]1C(=O)N[C@H](CCCNC(=N)N)C(=O)N[C@H](CCCNC(=N)N)C(=O)N[C@H](CCCNC(=N)N)C(=O)O [QF2D-2]
Kd [1]: 11 µM | Reduction of slope compared to QBP1 [2, 9]: 86% | Reduction of slope compared with P8 [2, 9]: 96% | Fluorescence intensity of the steady state, % of that measured for ARQ46 ([3]; at 90 h, equimolar, 15 µM ARQ46 and 15 µM peptide, TBS pH 7.5, 37 °C, λex 410 nm, λem 482 nm, three-fold determination): approx. 70%

Compound: KKQQQQQQQQQQQQQQQQQQQQQQQ QQQQQQQQQQQQQQQQQQQQQQQKK [L-K2Q46K2, universal polyglutamine peptide]
Spontaneous aggregation [4]: spontaneously formed amyloid fibrils after few hours lag time

Compound: L-ARQ46: androgen receptor fragment with 46 consecutive glutamine residues
Beta-sheet structure after incubation ([5]; TBS pH 7.5, 37 °C, 400 rpm, 24 h): 100% | Secondary structure after disaggregation ([5]; freshly disaggregated (100% TFA)): a mixture of random coil and alpha-helical structure | Spontaneous aggregation [4]: spontaneously formed amyloid fibrils after few hours lag time

More lines, main results first:

Effect on aggregation of monomeric ARQ46 (repeat with controls) ([3]; unseeded, ratio not stated, data not shown): drastically inhibited the aggregation
Compound: SNWKWWPGIFD [QBP1]
Neurological effect in mouse model [6]: did not yield beneficial neurological effects | Effect in presence of soluble aggregate fragments relative to selected peptides ([2]; soluble aggregate seeds): considerably smaller than that of the selected peptides | Inhibition of polyglutamine aggregation [7]: claimed to inhibit the aggregation of polyglutamine proteins | Therapeutic effect in Drosophila [8]: had a therapeutic effect in Drosophila

Slope of ThT curve after monomer addition (24 to 26 h), in words ([2]; 15 or 7.5 µM peptide preincubated 23 h with soluble seeds, TBS, 37 °C, two-fold determination): the steepest | Lag-phase in presence of soluble aggregates ([2]; soluble aggregate fragment seeds, TBS, 37 °C, two-fold determination): no lag-phase observable | Effect on aggregation of monomeric ARQ46, equimolar (repeat with controls) ([3]; unseeded, equimolar, data not shown): slight inhibiting effect
Compound: YDTPKHKDKTWPMM [P8]
